Assay type in all cases: biochemical
The target of assay [1] is T1, reverse transcriptase Superscript II (Moloney murine leukemia virus, UniProt P03355, D1183G/D1242N/E1221Q).
T1 construct: Superscript II is known as a reverse transcriptase (RNA-dependent DNA polymerase)
In words: Reverse transcription activity of Superscript II at elevated temperature (cDNA synthesis from in vitro transcribed RNA, denaturing agarose electrophoresis, autoradiography). The following applies: for electrophoretic pattern: full length cDNAs versus short products from prematurely terminated synthesis: reaction at 60° C., 20% of the substance and 20% glycerol in buffer (Lane 3 condition). On the procedure: To examine reverse transcription activity of Superscript II at an elevated temperature, cDNAs were synthesized using RNAs transcribed in vitro by T7 RNA polymerase as template and the products were evaluated. By using RNAs as a template transcribed in vitro and evaluating the products by electrophoresis, reverse transcription efficiencies of the samples can be compared with one another and thereby non-specific transcription termination which leads to premature termination of reverse transcription and/or reduction of reaction efficiency can be evaluated. The template RNAs were prepared by transcribing pBluescript II SK, which had been cleaved into a linear form with a restriction enzyme NotI, with T7 RNA polymerase in vitro. This reaction was initiated from T7 promoter described in the instruction of pBluescript II SK.
As a control, the following standard buffer condition was used: 50 mM Tris-HCl, pH 8.3, 75 mM KCl, 3 mM MgCl2, 10 mM dithiothreitol, each 0.75 mM of dNTPs (dATP, dGTP, dCTP and dTTP).
In the above standard buffer condition, 1 μg of template RNA, 400 ng of primer (20mer SK primer, […]) and 200 units of Superscript II were prepared and the final volume was adjusted to 20 μl. 0.2 μl of [α-^32P] dGTP was used for labeling of reverse transcription products. The RNA and the primer were incubated at 65° C. before the other substrates were added. Then, the reaction was performed at 42° C. for 1 hour. The reaction products were subjected to denatured agarose electrophoresis and electrophoretic patterns were examined by autoradiography to evaluate recoveries of full length cDNAs and rates of short products obtained from incomplete elongation. The results are shown in Lane 1 of FIG. 1.
The following buffer condition for reverse transcription was used to verify that addition of oligosaccharide stabilizes the enzyme reaction: 50 mM Tris-HCl, pH 8.3, 75 mM KCl, 3 mM MgCl2, 10 mM dithiothreitol, each 0.75 mM of dNTPs (dATP, dGTP, dCTP, dTTP), 20% (w/v) trehalose and 20% (v/v) glycerol.
1 μg of template RNA, 400 ng of primer (20 mer SK primer) and 200 units of Superscript II were reacted in 24 μl of aqueous solution under the above buffer condition. 0.2 μl of [α-^32P] dGTP was used for labeling of reverse transcription products. […] The primer and the template RNAs were annealed at 37° C. for 2 minutes and the enzyme activity was measured at 60° C.
The reaction products were subjected to denaturing agarose electrophoresis as described above, and electrophoretic patterns were examined by autoradiography to evaluate recoveries of full length cDNAs and rates of short products obtained from incomplete elongation.

For assay [2], the system named is restriction enzyme Sty I. In words: Sty I restriction enzyme digestion of λ DNA at 37-60° C. (agarose gel, image analysis of 1 kbp band). The following applies: suitable concentration; betaine 0-0.6M or sarcosine 0-3.6M; 37, 45, 50, 55 or 60° C. for 1 hour. On the procedure:
Reaction solutions (20 μl each) containing a restriction enzyme, Sty I 0.5 units, its substrate, λ DNA 0.5 μg and betaine 0-0.6M or sarcosine 0-3.6M were incubated at 37, 45, 50, 55 or 60° C. for 1 hour. In order to prevent initiation of enzyme reaction before the incubation, the samples were quickly prepared on ice. Upon incubation, 0.25% bromophenol blue, 0.26% XC (xylene cyanol), 30% glycerol and 120 mM EDTA (4 μl) was added to the reaction solution to terminate the reaction. The resulting solution was heated at […] for 5 minutes to melt cos sites and subjected to electrophoresis using 0.8% agarose gel containing 0.05% EtBr.
After electrophoresis, image analysis of the gels was conducted. Enzyme activity was represented by comparing strength of bands appeared at 1 kbp (with arrow). Regarding the samples using betaine, the standard (100) is the band strength obtained from the sample using 0 M of betaine and incubated at 37° C. Regarding the samples using sarcosine, the standard (100) is the band strength obtained from the sample using 0 M of sarcosine and incubated at 37° C.

Assay [3] deals with T1, reverse transcriptase Superscript II. In words: Reverse transcription activity of Superscript II at elevated temperature (cDNA synthesis from in vitro transcribed RNA, denaturing agarose electrophoresis, autoradiography).

Here are results for 9 molecules from US20070238158A1, “Method for enhancing enzyme activity at elevated temperature” (The Institute of Physical and Chemical Research, priority 1996, published 2007).

Turning to `OC[C@H]1O[C@H](O[C@H]2[C@H](O)[C@@H](O)C(O)O[C@@H]2CO)[C@H](O)[C@@H](O)[C@@H]1O` (mixture of isomers) [maltose], the “electrophoretic pattern: full length cDNAs versus short products from prematurely terminated synthesis” value in assay [1] was “the amount of products obtained from prematurely terminated synthesis became very small and full length products were synthesized”.
For `OC[C@@H](O)C(O)[C@H](O)CO` [arabitol], the “electrophoretic pattern: full length cDNAs versus short products from prematurely terminated synthesis” value in assay [1] was “the amount of products obtained from prematurely terminated synthesis became very small and full length products were synthesized”.
As for `C[N+](C)(C)CC(=O)O` [betaine], the “electrophoretic pattern: full length cDNAs versus short products from prematurely terminated synthesis” value in assay [1] was “the amount of products obtained from prematurely terminated synthesis became very small and full length products were synthesized”. Also, in assay [2], the “thermal activation of restriction enzyme (relative activity of Sty I)” value is “thermally activated”.
For the molecule `O=C(CO)[C@@H](O)[C@H](O)[C@H](O)CO` [levulose], in assay [1], the “electrophoretic pattern: full length cDNAs versus short products from prematurely terminated synthesis” value is “the amount of products obtained from prematurely terminated synthesis became very small and full length products were synthesized”.
With `CNCC(=O)O` [sarcosine], in assay [2], the “thermal activation of restriction enzyme (relative activity of Sty I)” value is recorded as “thermally activated”.
In the case of `OC[C@@H](O)[C@@H](O)[C@H](O)[C@@H](O)CO` [sorbitol], the “electrophoretic pattern: full length cDNAs versus short products from prematurely terminated synthesis” value in assay [1] was “the amount of products obtained from prematurely terminated synthesis became very small and full length products were synthesized”.
`OC[C@H]1O[C@H](O[C@H]2O[C@H](CO)[C@@H](O)[C@H](O)[C@H]2O)[C@H](O)[C@@H](O)[C@@H]1O` [trehalose]: the “electrophoretic pattern: full length cDNAs versus short products from prematurely terminated synthesis” value in assay [1] is “the amount of products obtained from prematurely terminated synthesis became very small and full length products were synthesized”. Besides, the “Superscript II activity compared with control reaction in standard buffer” value in assay [3] (normal temperature (42° C.), 20% (w/v) trehalose and 20% (v/v) glycerol) is “higher activity than the control reaction”. Besides, the “electrophoretic pattern: products from premature termination of reverse transcription” value in assay [3] (reaction at 42° C., 20% trehalose and 20% glycerol (Lane 2)) is listed as “products resulted from premature termination as mentioned above were also observed”.
On to `OC[C@@H](O)[C@H](O)[C@@H](O)CO` [xylitol], for which the “electrophoretic pattern: full length cDNAs versus short products from prematurely terminated synthesis” value in assay [1] was “the amount of products obtained from prematurely terminated synthesis became very small and full length products were synthesized”.
For Triton X100, the “amount of incomplete reverse transcription products when added to the Lane 3 condition” value in assay [1] (60° C., 0.05% Triton X100 plus 20% trehalose and 20% glycerol (Lane 4)) is listed as “further reduced”. Also, the “effect on enzyme activity when added to the Lane 3 condition” value in assay [1] (60° C., additive plus 20% trehalose and 20% glycerol, BSA 0.125 μg/μl (Lane 5), Triton X100 0.05% (Lane 4)) is reported as “the whole activity of the reverse transcriptase was slightly reduced”.
